Patent publication US7064218B2, “Aromatic compounds and poly(oxyalkylene) containing aromatic compounds possessing antibacterial, antifungal or antitumor activity” (Genelabs Technologies, Inc., priority 2001, dated 2006)

Key:
[1] = tested on: yeast and aspergillus species; test: Minimum Inhibitory Concentration (MIC) assay, yeast and filamentous fungi; assay type: cell-based, Candida albicans; Aspergillus fumigatus; conditions: antifungal; complete inhibition of visible growth, 48 h at 35 C
Protocol: (§1) These assays are adapted from NCCLS protocols M7-A4 and M27-A (NCCLS vol 17:9 and vol 17:2) as modified by Sandven, S. Clin. Micro. (1999) 37:12, p. 3856–3859. MIC values for Aspergillus fumigatus were determined using NCCLS protocol M38-P.
(§2) All compounds were dissolved in 100% DMSO to a stock concentration of 10 mM and use fresh or stored at −80° C. Stock compounds were kept frozen until needed and used freshly with no more then one freeze-thaw cycle. When used for test purposes, compounds were diluted in the appropriate media depending on the organism being tested.
(§3) For yeast and aspergillus species, seven 1:2 serial dilutions of compound in appropriate media buffered with MOPS at pH 7.0 were prepared such that the final starting test compound concentrations were 50.0 uM for yeast and 50 uM aspergillus species. For bacteria, dilutions were made in growth media used for the particular bacteria being tested.
Five well-separated colonies from a 24 hr Sabouraud Dextrose plate incubated at 35 C were picked and resuspended into 5.0 ml of normal saline. The O.D.530 was read and the culture was adjusted to 0.5 McFarland units with normal saline. A 1:2000 dilution was made with RPMI 1640 media buffered with MOPS at pH 7.0 and 100 μL of this inoculum preparation was added to an equal volume of test compound-containing media. 25 μL of the redox indicator Alamar Blue (Biosource International) was added to each well and the plates were incubated for 48 h at 35 C. Wells having yeast growth changed color from blue to pink.
Inoculums are made by incubating Aspergillus fumigatus for 7 days at 35 C on potato dextrose agar slants. Slants are then covered with 1.0 ml of 0.85% saline, one drop of Tween 20 is added and colonies are teased with a sterile transfer loop to create a suspension which is allowed to sit for 5 min so heavier particles can drop out. The upper suspension is separated and adjusted to an optical density of 0.09 to 0.11. The resulting suspension is diluted 1:50 which yields 2× the final inoculum needed. Micro dilution trays are prepared as with yeast and incubated for 48 h at 35 C. For our purposes the MIC is defined as the lowest compound concentration at which no visible growth is observed after 48 h.

bacteria = test: Minimum Inhibitory Concentration (MIC) assay, bacteria; assay type: cell-based; conditions: antibacterial; complete inhibition of visible growth
Protocol: as §1, §2, §3
Inoculums are made in the same manner as yeast except all dilutions are made in normal saline, with a final dilution of 1:200 and an inoculum of 10 μL.

| Structure (SMILES) | MIC [1] [µM] | MIC (bacteria) [µM] |
| --- | --- | --- |
| N=C(N)CNC(=O)c1cc(NC(=O)c2ccc(C(=O)Nc3cc(C(=O)NCC(=N)N)n(CC4CC4)c3)cc2)cn1CC1CC1 [Compound 284, N,N′-Bis-[5-(carbamimidoylmethylcarbamoyl)-1-cyclopropylmethyl-1H-pyrrol-3-yl]-terephthalamide] | < 45.5 | < 45.5 |
| CCCCn1cc(NC(=O)c2ccc(C(=O)Nc3cc(C(=O)NCC(=N)N)n(CCCC)c3)cc2)cc1C(=O)NCC(=N)N [Compound 287, N,N′-Bis-[1-butyl-5-(carbamimidoylmethyl-carbamoyl)-1H-pyrrol-3-yl]terephthalamide] | < 45.5 | < 45.5 |
| CCCCn1cc(NC(=O)c2ccc(C(=O)Nc3cc(C(=O)NCC(=N)NC)n(CCCC)c3)cc2)cc1C(=O)NCC(=N)NC [Compound 289, N,N′-Bis-[1-butyl-5-(methylcarbamimidoylmethyl-carbamoyl)-1H-pyrrol-3-yl]terephthalamide] | < 45.5 | < 45.5 |
| CCCCn1cc(NC(=O)c2ccc(C(=O)Nc3cc(C(=O)NCC(=N)NCC)n(CCCC)c3)cc2)cc1C(=O)NCC(=N)NCC [Compound 290, N,N′-Bis-[1-butyl-5-(ethylcarbamimidoylmethyl-carbamoyl)-1H-pyrrol-3-yl]terephthalamide] | < 45.5 | < 45.5 |
| N=C(N)CNC(=O)c1cc(NC(=O)c2ccc(C(=O)Nc3cc(C(=O)NCC(=N)N)n(CC4CC4)c3)nc2)cn1CC1CC1 [Compound 292, Pyridine-2,5-dicarboxylic acid bis{[5-(carbamimidoylmethyl-carbamoyl)-1-cyclopropylmethyl-1H-pyrrol-3-yl]-amide}] | < 45.5 | < 45.5 |
| N=C(N)CNC(=O)c1cc(NC(=O)c2cnc(C(=O)Nc3cc(C(=O)NCC(=N)N)n(CC4CC4)c3)cn2)cn1CC1CC1 [Compound 293, Pyrazine-2,5-dicarboxylic acid bis-{[5-(carbamimidoylmethyl-carbamoyl)-1-cyclopropylmethyl-1H-pyrrol-3-yl]-amide}] | < 45.5 | < 45.5 |
| N=C(N)CNC(=O)c1cc(NC(=O)C2=CC=C(C(=O)Nc3cc(C(=O)NCC(=N)N)n(CC4CC4)c3)CC2)cn1CC1CC1 [Compound 294, Cyclohexa-1,3-diene-1,4-dicarboxylic acid bis-{[5-(carbamimidoylmethyl-carbamoyl)-1-cyclopropylmethyl-1H-pyrrol-3-yl]-amide}] | < 45.5 | < 45.5 |
| N=C(N)CNC(=O)c1cc(NC(=O)c2cc(C(=O)Nc3cc(C(=O)NCC(=N)N)n(CC4CC4)c3)[nH]n2)cn1CC1CC1 [Compound 295, 1H-Pyrazole-3,5-dicarboxylic acid bis-{[5-(carbamimidoylmethyl-carbamoyl)-1-cyclopropylmethyl-1H-pyrrol-3-yl]-amide}] | < 45.5 | < 45.5 |
